Measurements from ChEMBL document CHEMBL3751790, “Novel hydroxyamides and amides containing D-glucopyranose or D-fructose units: Biological assays in MCF-7 and MDST8 cell lines” (Bioorg Med Chem Lett, 2016).
The source made the active and inactive calls. The calls are words filed in the database; no cut-off is given here.

Experiments:
MCF7 [1] = assay: Cytotoxicity against human MCF7 cells after 72 hrs by CCK8 assay; assay type: functional, cell-based
[2] = (§1) Cytotoxicity against human MDST8 cells at 1 x 10^-5 M after 72 hrs by CCK8 assay; assay type: functional; conditions: MDST8, 72 h
MCF7 [3] = assay: Cytotoxicity against human MCF7 cells at 1 x 10^-5 M after 72 hrs by CCK8 assay; assay type: functional; conditions: for inhibition at 10 µM: MCF7, 72 h
[4] = Cytotoxicity against human MDST8 cells after 72 hrs by CCK8 assay; assay type: functional, cell-based
MDST8 = assay: as §1; assay type: functional
[5] = Cytotoxicity against human MDST8 cells at 1 x 10^-8 M after 72 hrs by CCK8 assay; assay type: functional; conditions: MDST8, 72 h
[6] = Homo sapiens, MCF7, 72 h, read-out: IC50
[7] = Homo sapiens, MDST8, 72 h, read-out: IC50

| SMILES | IC50 (MCF7 [1]; mcf7) | IC50 ([4]; mdst8) | other results |
| --- | --- | --- | --- |
| C=CCOC(=O)[C@H]1O[C@@H](OC(C)=O)[C@H](OC(C)=O)[C@@H](OC(C)=O)[C@@H]1OC(C)=O | – | – | IC50 (MCF7 [1]; [6]): 4500 nM |
| O=c1[nH]cc(F)c(=O)[nH]1 [FLUOROURACIL] | – | – | IC50 (MCF7 [1]; [6]): 520 nM; inhibition at 10 µM [2]: 83%; inhibition at 10 µM (MCF7 [3]): 60%; IC50 [4, 7]: 64 nM |
| CC(=O)O[C@@H]1O[C@H](C(=O)N[C@H]2CN(Cc3ccccc3)C[C@@H]2NC(=O)[C@H]2O[C@@H](OC(C)=O)[C@H](OC(C)=O)[C@@H](OC(C)=O)[C@@H]2OC(C)=O)[C@@H](OC(C)=O)[C@H](OC(C)=O)[C@H]1OC(C)=O | – | – | IC50 [4, 7]: 100 nM |
| CC(=O)O[C@@H]1O[C@H](C(=O)N[C@H](CO)C(C)C)[C@@H](OC(C)=O)[C@H](OC(C)=O)[C@H]1OC(C)=O | – | – | inhibition (MDST8): Active |
| CC(=O)O[C@@H]1O[C@H](C(=O)NCCCBr)[C@@H](OC(C)=O)[C@H](OC(C)=O)[C@H]1OC(C)=O | Not Active | – | inhibition at 10 µM [2]: > 90%; inhibition at 0.01 µM [5]: 50%; IC50 [4, 7]: 100 nM |
| O=C(N[C@H](CO)c1ccccc1)[C@H]1O[C@](O)(CO)[C@@H](O)[C@@H]1O | Not Active | Not Active | – |
| CC(=O)O[C@@H]1O[C@H](C(=O)N[C@H](CO)Cc2ccccc2)[C@@H](OC(C)=O)[C@H](OC(C)=O)[C@H]1OC(C)=O | Not Active | Not Active | – |
| O=C(NCCCO)[C@H]1O[C@](O)(CO)[C@@H](O)[C@@H]1O | Active | Not Active | inhibition at 10 µM (MCF7 [3]): > 60% |
| O=C(N[C@H](CO)Cc1ccccc1)[C@H]1OC(O)(CO)[C@@H](O)[C@@H]1O (single isomer, unassigned) | Not Active | Not Active | – |
| O=C(NCCO)[C@H]1O[C@](O)(CO)[C@@H](O)[C@@H]1O | Active | Not Active | inhibition at 10 µM (MCF7 [3]): > 60% |
| O=C(Nc1ccncc1)[C@H]1O[C@@H](O)[C@H](O)[C@@H](O)[C@@H]1O | – | – | IC50 (MCF7 [1]; [6]): 190 nM |
| CC(=O)O[C@@H]1O[C@H](C(=O)N[C@H](CO)c2ccccc2)[C@@H](OC(C)=O)[C@H](OC(C)=O)[C@H]1OC(C)=O | Not Active | Not Active | – |
| CC(C)(C)[C@@H](CO)NC(=O)[C@H]1OC(O)(CO)[C@@H](O)[C@@H]1O (single isomer, unassigned) | Active | – | inhibition (MCF7 [3]): Active |
| CC(=O)O[C@@H]1O[C@H](C(=O)NCCCO)[C@@H](OC(C)=O)[C@H](OC(C)=O)[C@H]1OC(C)=O | Active | Not Active | inhibition at 10 µM (MCF7 [3]): > 60% |
| CC(C)[C@@H](CO)NC(=O)[C@H]1OC(O)(CO)[C@@H](O)[C@@H]1O (single isomer, unassigned) | – | Active | inhibition at 10 µM [2]: 80% |
| CC(=O)O[C@@H]1O[C@H](C(=O)N2CCCC2)[C@@H](OC(C)=O)[C@H](OC(C)=O)[C@H]1OC(C)=O | – | – | IC50 (MCF7 [1]; [6]): 1000 nM |
| CC(=O)O[C@@H]1O[C@H](C(=O)NCCO)[C@@H](OC(C)=O)[C@H](OC(C)=O)[C@H]1OC(C)=O | Active | Not Active | inhibition at 10 µM (MCF7 [3]): > 60% |
